Laboratory results reported in the supplement of paper PMC10307832.

Key:
Assay in all cases: relative viability (nuclei count vs DMSO), 5 days (fraction); higher = more cells survive
Carboplatin + Luminespib = compound: C1CC(C1)(C(=O)O)C(=O)O.[NH2-].[NH2-].[Pt+2] [Carboplatin] + CCNC(=O)c1noc(-c2cc(C(C)C)c(O)cc2O)c1-c1ccc(CN2CCOCC2)cc1 [Luminespib] (partner 0.01 µM)
Summary of the method: (§1)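 Relative viability is defined as nuclei in treated wells over nuclei in vehicle wells. Duplicate plates were run and medians reported. Lung cancer cell lines in 1536-well plates were dosed by pin tool one day after seeding, with one drug or with a fixed anchor-drug dose plus five library-drug doses (not always all listed) in √10 steps, and nuclei were counted after 5 days.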

Carboplatin + Pemetrexed = compound: C1CC(C1)(C(=O)O)C(=O)O.[NH2-].[NH2-].[Pt+2] [Carboplatin] + Nc1nc2[nH]cc(CCc3ccc(C(=O)N[C@@H](CCC(=O)O)C(=O)O)cc3)c2c(=O)[nH]1 [Pemetrexed] (partner 0.2 µM)
Summary of the method: as §1

GSK126 + Foretinib = compound: CC[C@H](C)N1C=C(C2=C(C=C(C=C21)C3=CN=C(C=C3)N4CCNCC4)C(=O)NCC5=C(C=C(NC5=O)C)C)C [GSK126] + COc1cc2c(Oc3ccc(NC(=O)C4(C(=O)Nc5ccc(F)cc5)CC4)cc3F)ccnc2cc1OCCCN1CCOCC1 [Foretinib] (partner 0.25 µM)
Summary of the method: as §1

MLN4924 + OSI-027 = compound: NS(=O)(=O)OC[C@@H]1C[C@@H](n2ccc3c(N[C@H]4CCc5ccccc54)ncnc32)C[C@@H]1O [MLN4924] + COc1cccc2cc(-c3nc([C@H]4CC[C@H](C(=O)O)CC4)n4ncnc(N)c34)[nH]c12 [OSI-027] (partner 0.5 µM)
Summary of the method: as §1

| Cell Line | relative viability (Carboplatin + Luminespib; first compound 0.08 µM) | relative viability (Carboplatin + Luminespib; first compound 0.253 µM) | relative viability (Carboplatin + Luminespib; first compound 0.8 µM) | relative viability (Carboplatin + Luminespib; first compound 2.53 µM) | relative viability (Carboplatin + Luminespib; first compound 8 µM) | relative viability (Carboplatin + Pemetrexed; first compound 0.08 µM) | relative viability (Carboplatin + Pemetrexed; first compound 0.253 µM) | relative viability (Carboplatin + Pemetrexed; first compound 0.8 µM) | relative viability (Carboplatin + Pemetrexed; first compound 2.53 µM) | relative viability (Carboplatin + Pemetrexed; first compound 8 µM) | relative viability (GSK126 + Foretinib; first compound 0.08 µM) | relative viability (GSK126 + Foretinib; first compound 0.253 µM) | relative viability (GSK126 + Foretinib; first compound 0.8 µM) | relative viability (GSK126 + Foretinib; first compound 2.53 µM) | relative viability (GSK126 + Foretinib; first compound 8 µM) | relative viability (MLN4924 + OSI-027; first compound 0.04 µM) | relative viability (MLN4924 + OSI-027; first compound 0.1265 µM) | relative viability (MLN4924 + OSI-027; first compound 0.4 µM) | relative viability (MLN4924 + OSI-027; first compound 1.265 µM) | relative viability (MLN4924 + OSI-027; first compound 4 µM) |
| --- | --- | --- | --- | --- | --- | --- | --- | --- | --- | --- | --- | --- | --- | --- | --- | --- | --- | --- | --- | --- |
| SK-MES-1 | 0.891 | 0.763 | 0.714 | 0.777 | 0.81 | 1.04 | 0.928 | 0.92 | 0.972 | 0.843 | 1.01 | 0.913 | 0.88 | 0.834 | 0.976 | 0.678 | 0.585 | 0.266 | 0.133 | 0.16 |
| NCI-H1563 | 0.526 | 0.506 | 0.499 | 0.482 | 0.565 | 0.941 | 0.751 | 0.73 | 0.755 | 0.791 | 1.01 | 0.9 | 0.934 | 0.893 | 0.95 | 0.981 | 1.04 | 0.74 | 0.526 | 0.524 |
| NCI-H2170 | 0.911 | 0.783 | 0.47 | 0.351 | 0.283 | 0.246 | 0.252 | 0.265 | 0.286 | 0.236 | 0.587 | 1.03 | 0.979 | 0.969 | 0.973 | 0.694 | 0.601 | 0.27 | 0.178 | 0.255 |
| NCI-H322M | 1.09 | 0.749 | 0.752 | 0.633 | 0.61 | 0.688 | 0.601 | 0.613 | 0.594 | 0.616 | 0.942 | 1.03 | 0.958 | 1.13 | 0.972 | 0.622 | 0.588 | 0.339 | 0.272 | 0.329 |
| NCI-H2085 | 0.454 | 0.419 | 0.494 | 0.488 | 0.377 | 1.03 | 0.846 | 0.974 | 0.948 | 0.899 | 1.09 | 1.04 | 0.855 | 1.12 | 1.24 | 0.852 | 0.746 | 0.635 | 0.512 | 0.307 |
| PC-3 [JPC-3] | 0.807 | 0.749 | 0.616 | 0.716 | 0.703 | 1.28 | 0.986 | 1.02 | 0.939 | 0.889 | 1.02 | 1.02 | 1.02 | 1.01 | 0.997 | 0.829 | 0.744 | 0.659 | 0.283 | 0.237 |
| NCI-H1355 | 0.826 | 0.814 | 0.765 | 0.588 | 0.537 | 1.06 | 1.1 | 1.09 | 1 | 0.892 | 1.05 | 1.05 | 0.964 | 1.09 | 0.979 | 0.456 | 0.388 | 0.277 | 0.221 | 0.231 |
| NCI-H1650 | 0.212 | 0.217 | 0.189 | 0.215 | 0.196 | 0.459 | 0.46 | 0.302 | 0.32 | 0.318 | 1.45 | 1 | 0.934 | 1.12 | 1.09 | 0.564 | 0.379 | 0.184 | 0.102 | 0.17 |
| NCI-H838 | 0.284 | 0.291 | 0.195 | 0.192 | 0.188 | 0.271 | 0.285 | 0.236 | 0.244 | 0.251 | 1.1 | 1.07 | 0.929 | 0.992 | 0.954 | 0.364 | 0.241 | 0.224 | 0.154 | 0.166 |
| NCI-H1755 | 0.419 | 0.7 | 0.41 | 0.595 | 0.366 | 0.436 | 0.371 | 0.437 | 0.443 | 0.386 | 1.02 | 0.975 | 0.962 | 0.924 | 0.968 | 0.681 | 0.518 | 0.4 | 0.207 | 0.208 |
| NCI-H1651 | 0.829 | 0.782 | 0.627 | 0.424 | 0.229 | 0.702 | 0.61 | 0.552 | 0.534 | 0.56 | 0.736 | 0.848 | 0.868 | 0.702 | 0.977 | 0.694 | 0.828 | 0.866 | 0.398 | 0.161 |
| NCI-H650 | 0.757 | 0.904 | 0.655 | 0.548 | 0.327 | 0.935 | 0.97 | 0.947 | 1 | 0.903 | 1.15 | 1.02 | 0.954 | 1.02 | 1.03 | 0.344 | 0.415 | 0.235 | 0.162 | 0.187 |
| LK-2 | 0.177 | 0.198 | 0.179 | 0.16 | 0.178 | 0.336 | 0.314 | 0.273 | 0.233 | 0.289 | 1.44 | 1.33 | 1.28 | 1.15 | 1.19 | 0.214 | 0.214 | 0.191 | 0.202 | 0.17 |
| PC-14 | 0.116 | 0.144 | 0.148 | 0.107 | 0.155 | 0.127 | 0.131 | 0.143 | 0.11 | 0.0992 | 0.914 | 0.886 | 0.924 | 0.908 | 0.918 | 1.03 | 0.787 | 0.378 | 0.0583 | 0.065 |
| ChaGo-K-1 | 0.774 | 0.589 | 0.399 | 0.398 | 0.297 | 0.262 | 0.261 | 0.253 | 0.249 | 0.269 | 1.07 | 1.06 | 0.878 | 1 | 0.835 | 0.461 | 0.35 | 0.272 | 0.181 | 0.176 |
